In assay [1] the target is NL20 human bronchial epithelial cells expressing human Z-AAT (Homo sapiens (Human), UniProt P01009, E366K). The experiment in a line: AAT Function Assay (MSD Assay NL20-SI Cell Line). As to conditions: functionally active AAT (AAT-hNE complex, MSD) in supernatant of NL20 cells expressing human Z-AAT; read-out: NL20 Functional EC50. The format is cell-based. The essentials:
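NL20 bronchial epithelial cells expressing Z-AAT, induced with 0.1 μM doxycycline, were treated with compound overnight. Functional AAT in supernatant was measured by complex formation with excess human neutrophil elastase, captured on anti-AAT plates, detected with Sulfo-tagged anti-elastase on MSD, and quantified against M-AAT standards (0.156–320 ng/mL).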

For assay [2], the target named is purified Z-AAT protein from human plasma (Homo sapiens (Human), UniProt P01009, E366K). The assay can be described thus: Biochemical Assay (Z-AAT Elastase Activity Assay). As to conditions: purified Z-AAT pre-incubated with compound 1 hour, then human neutrophil elastase and fluorescent substrate. The essentials:
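Purified plasma Z-AAT (20 nM) preincubated with compounds 1 h at room temperature, then 3 nM human neutrophil elastase added in PBS + 0.01% BRIJ35 for 30 min to form suicide complex. Residual elastase activity read immediately by fluorescence after adding 300 μM MeOSuc-AAPV-AMC substrate solution.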

Sequence of NL20 human bronchial epithelial cells expressing human Z-AAT (P01009 25-418 E366K limits assumed): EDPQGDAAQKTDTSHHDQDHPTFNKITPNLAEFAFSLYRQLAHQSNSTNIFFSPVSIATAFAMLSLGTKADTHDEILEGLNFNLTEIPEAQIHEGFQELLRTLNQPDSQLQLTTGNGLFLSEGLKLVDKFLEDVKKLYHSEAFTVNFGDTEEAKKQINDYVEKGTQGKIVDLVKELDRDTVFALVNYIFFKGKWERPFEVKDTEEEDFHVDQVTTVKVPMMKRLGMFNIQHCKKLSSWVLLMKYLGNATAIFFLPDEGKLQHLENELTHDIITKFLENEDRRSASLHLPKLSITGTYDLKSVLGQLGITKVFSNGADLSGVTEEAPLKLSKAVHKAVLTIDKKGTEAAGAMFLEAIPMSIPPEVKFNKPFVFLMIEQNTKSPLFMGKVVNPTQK
Sequence of purified Z-AAT protein from human plasma (P01009 25-418 E366K limits assumed): as above

For `Cc1cc(-n2c(C3CCOCC3)c([C@H]3C[C@@H](c4noc(=O)[nH]4)C3)c3cc(O)ccc32)ccc1F` [Compound 224, cis-3-[3-[1-(4-fluoro-3-methyl-phenyl)-5-hydroxy-2-tetrahydropyran-4-yl-indol-3-yl]cyclobutyl]-4H-1,2,4-oxadiazol-5-one], the EC50 (commonly the concentration needed to bring the measured effect to its halfway point) in assay [1] was above 2 µM. Further, the IC50 (in general, the point on the concentration scale where inhibition reaches its midpoint) in assay [2] was above 30 µM.
Taken in the same sequence, the figures for `Cc1cc(-n2c(C(C)C)c([C@H]3C[C@H](CO)C3)c3cc(O)ccc32)ccc1F` [Compound 225, Trans-1-(4-fluoro-3-methyl-phenyl)-3-[3-(hydroxymethyl)cyclobutyl]-2-isopropyl-indol-5-ol] were above 2 µM and above 30 µM.
For `Cc1cc(-n2c(C(C)C)c([C@H]3C[C@@H](CO)C3)c3cc(O)ccc32)ccc1F` [Compound 226, cis-1-(4-fluoro-3-methyl-phenyl)-3-[3-(hydroxymethyl)cyclobutyl]-2-isopropyl-indol-5-ol], the EC50 in assay [1] was above 2 µM. The IC50 in assay [2] was above 30 µM.
Taken in the same sequence, the figures for `Cc1cc(-n2c(C(C)C)c([C@@H]3CC[C@@H]3CO)c3cc(O)ccc32)ccc1F` [Compound 227] were above 2 µM and above 30 µM.
